From PubChem BioAssay (NCI) come the findings set out here.

Some test systems named below: COLO 205 colon; HCC-2998 colon; HL-60(TB) leukemia; HOP-92 NSCLC; IGROV1 ovarian; M14 melanoma; MOLT-4 leukemia; NCI-H460 lung; RXF 393 renal; SF-295 CNS; SK-MEL-5 melanoma; SK-OV-3 ovarian; TK-10 renal; UO-31 renal.
Test in all cases: NCI tumour cell line growth inhibition, 48 h

Values joined by “and” are separate entries in the source; they are usually repeats but may differ in a detail not shown here. Equal entries are not always repeated.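 Step 1: Grow cells in 96-well plates. Step 2: Expose to compound for 48 hours at 5 concentrations. Step 3: Interpolate endpoints linearly; if unreached, use highest concentration. GI50 = concentration required for 50% inhibition of growth. TGI: concentration producing complete growth inhibition.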

Consider `COc1cc(-c2c(C#N)c(N)c(C#N)c3c2COc2ccccc2-3)cc(OC)c1OC`, for which the TGI in the experiment with COLO 205 colon is > 100 µM; in the experiment on HCC-2998 colon, > 100 µM; in the experiment on HL-60(TB) leukemia it was > 100 µM; in the experiment on HOP-92 NSCLC, 38.6 µM; in the experiment on IGROV1 ovarian, > 79.6 µM; with M14 melanoma, > 100 µM. Moreover, the TGI in the experiment with MOLT-4 leukemia is > 100 µM; with NCI-H460 lung, > 100 µM; in the experiment with RXF 393 renal, 34.4 µM; in the experiment with SF-295 CNS it was 58.5 µM; in the experiment on SK-MEL-5 melanoma it was > 100 µM; in the experiment on SK-OV-3 ovarian, 32.4 µM. Besides, the values for the TGI with TK-10 renal and in the experiment with UO-31 renal were 40.3 µM and > 69.8 µM, respectively.

For `c1ccc(C(c2ccccc2)[P+](c2ccccc2)(c2ccccc2)c2ccccc2)cc1`, the TGI in the experiment with COLO 205 colon was determined as 1.2 µM; with HCC-2998 colon it was 11.7 µM; in the experiment with HL-60(TB) leukemia, 4.05 µM; in the experiment on HOP-92 NSCLC, 2.79 µM; in the experiment on IGROV1 ovarian, 8.64 µM; in the experiment with MOLT-4 leukemia, 4.06 µM. Further, the TGI in the experiment on NCI-H460 lung stood at 11.5 µM; in the experiment with RXF 393 renal, 10.6 µM; in the experiment with SF-295 CNS, 7.27 µM; in the experiment with SK-MEL-5 melanoma, 1.15 µM; in the experiment on SK-OV-3 ovarian, 2.68 µM; with UO-31 renal, 7.95 µM.

With `CCCCCCCCCCCCCCCC[N+](C)(C)CCN(Cc1ccc(OC)cc1)c1ncccn1`, the GI50 in the experiment with HL-60(TB) leukemia is 1.4 µM and 0.661 µM; in the experiment on RXF 393 renal, 1.52 µM and 0.821 µM; in the experiment with SK-MEL-5 melanoma, 2.68 µM; in the experiment with SK-OV-3 ovarian, 2.24 µM; with UO-31 renal it was 5.65 µM. Also, the TGI in the experiment with HL-60(TB) leukemia is 3.99 µM and 4.79 µM; with RXF 393 renal it was 3.49 µM and 2.43 µM; in the experiment on SK-MEL-5 melanoma it was 8.77 µM; in the experiment on SK-OV-3 ovarian, 7.24 µM; with UO-31 renal, 52.9 µM.

In the case of `C=CCOC1OC(CS(=O)(=O)O)C(O)C(O)C1O` (configuration not stated), the TGI with COLO 205 colon, in the experiment on HCC-2998 colon, in the experiment on HL-60(TB) leukemia, in the experiment on HOP-92 NSCLC, with IGROV1 ovarian and in the experiment on M14 melanoma was > 100 µM each time. For the same molecule, the TGI in the experiment on MOLT-4 leukemia, with NCI-H460 lung, with RXF 393 renal, in the experiment with SF-295 CNS, in the experiment with SK-MEL-5 melanoma and with SK-OV-3 ovarian was > 100 µM each time. Moreover, the TGI in the experiment with TK-10 renal and with UO-31 renal was > 100 µM each time.

Turning to `CS/C(=N\C(=S)Nc1ccccc1)Nc1ccccc1`, the TGI is 78.1 µM in the experiment on COLO 205 colon; 57 µM with HCC-2998 colon; 39.2 µM in the experiment with HL-60(TB) leukemia; 97.6 µM with IGROV1 ovarian; 96.1 µM with M14 melanoma; 85.7 µM in the experiment with MOLT-4 leukemia. Moreover, the TGI in the experiment on NCI-H460 lung turned out to be 48.7 µM; in the experiment with RXF 393 renal, 48.4 µM; in the experiment with SF-295 CNS, 97 µM; in the experiment on SK-MEL-5 melanoma, 21.5 µM; in the experiment on SK-OV-3 ovarian it was 58.9 µM; in the experiment on TK-10 renal, 54.7 µM. Also, in the experiment with UO-31 renal, the TGI was found to be 43.1 µM.

Turning to `O=C(c1ccccc1)[C@H]1Nc2ccc(Cl)cc2[C@H]2OCCC[C@@H]12`, the TGI in the experiment on COLO 205 colon is 45.7 µM; in the experiment on HCC-2998 colon, 45.8 µM; in the experiment on IGROV1 ovarian it was > 100 µM; in the experiment on M14 melanoma it was 31.9 µM; in the experiment on MOLT-4 leukemia, 61.7 µM; in the experiment on NCI-H460 lung, 34.5 µM. The TGI is 32.4 µM with RXF 393 renal, 32.8 µM in the experiment on SF-295 CNS, 64.6 µM in the experiment with TK-10 renal and 33 µM with UO-31 renal.

Regarding `FC(F)(F)C(C1=NC(C(F)(F)F)(C(F)(F)F)N=C(N2CCOCC2)O1)C(F)(F)F`, the TGI with COLO 205 colon is 38.9 µM; in the experiment on HCC-2998 colon it was > 100 µM; in the experiment on HL-60(TB) leukemia it was 22 µM; in the experiment with HOP-92 NSCLC, > 100 µM; in the experiment on IGROV1 ovarian it was 57.1 µM; in the experiment with M14 melanoma it was 60.5 µM. Also, the TGI in the experiment on MOLT-4 leukemia is > 100 µM; in the experiment with NCI-H460 lung, > 100 µM; in the experiment on RXF 393 renal it was 37 µM; in the experiment with SF-295 CNS it was 44.6 µM; in the experiment with SK-MEL-5 melanoma it was 28.4 µM; in the experiment on SK-OV-3 ovarian, > 100 µM. The TGI in the experiment on TK-10 renal is 83.6 µM; with UO-31 renal, > 100 µM.

With `COc1ccc(C2C(=O)C(Cl)N2Nc2nc(C)cc(=O)[nH]2)cc1OC` (configuration not stated), the TGI with COLO 205 colon is > 100 µM; in the experiment on HCC-2998 colon, > 100 µM; with HL-60(TB) leukemia, 37.6 µM; with HOP-92 NSCLC, 81.7 µM; in the experiment with IGROV1 ovarian, 70.2 µM; with M14 melanoma, > 100 µM. Also, the TGI in the experiment with MOLT-4 leukemia, with NCI-H460 lung, in the experiment with RXF 393 renal, with SK-MEL-5 melanoma, with TK-10 renal and in the experiment with UO-31 renal was > 100 µM each time.

`Nc1ccc(C2NC(=O)Cc3c2ccc2ccccc32)cc1` (configuration not stated): the TGI in the experiment with COLO 205 colon, in the experiment on HCC-2998 colon, with HL-60(TB) leukemia, in the experiment with HOP-92 NSCLC, in the experiment with IGROV1 ovarian and in the experiment on M14 melanoma was > 100 µM each time. Further, the TGI with MOLT-4 leukemia, with NCI-H460 lung, in the experiment with SF-295 CNS, in the experiment with SK-MEL-5 melanoma, in the experiment with SK-OV-3 ovarian and in the experiment on TK-10 renal was > 100 µM each time. In the experiment on UO-31 renal, the TGI is > 100 µM.
